Square brackets hold non-standard residues; d marks the D form. Peptide text beside a SMILES is read from it. * marks the point of attachment. X1 = C[n+]1c(-c2ccc3c(c2)CCCN3CCCCCC(=O)*)sc2cc(Br)ccc21; dBip = N[C@H](Cc1ccc(-c2ccccc2)cc1)C(=O)O
How the values were obtained:
Aβ1-42 = Aβ1-42 (Homo sapiens, UniProt P05067); test: Oxygenation of Aβ1-42 in cell culture medium; type: biochemical; details: 50 mmol %, light 500 nm, 30 minutes, medium containing 0.1% horse serum
Text: Then, the reaction was monitored with a mass spectrometer (MALDI-TOF MS).

PC12 cells = type: cell-based, rat
Method: The solution was added at 50 μL/well to rat adrenal medulla-derived pheochromocytoma PC12 cells (purchased from RIKEN, Japan) inoculated to a poly-D-lysine-coated 96-well plate and similarly reacted. The reaction solution in each well was diluted with 50 μL of a Dulbecco's modified eagle's medium containing 0.1% horse serum (final concentration of Aβ: 10 μM) and then incubated at 37° C. for 48 hours in a 5% CO2 atmosphere. A live cell count measurement reagent SF containing WST-8 (10 μL; purchased from Nacalai Tesque, Inc.) was added to each well, and the mixture was incubated at 37° C. for 3 hours in a 5% CO2 atmosphere. Then, the cell viability was measured from absorbance at 450 nm (reference wavelength: 655 nm).

[1] = molecular target: Aβ1-42 aggregated in advance (Homo sapiens, UniProt P05067); test: Aβ affinity (Kd association curve from fluorescence intensity); type: binding; details: aggregated Aβ1-42 0.5 μM, phosphate buffer pH 7.4, room temperature 1 hour
Chain of Aβ1-42 aggregated in advance (P05067 672-713 limits assumed): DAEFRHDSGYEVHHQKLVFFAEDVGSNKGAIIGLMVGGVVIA
Text: For compound (1a), the excitation wavelength was set to 460 nm, and the fluorescence wavelength was set to 515 nm. A Kd association curve was obtained from the fluorescence intensity using KaleidaGraph 4.5 (Synergy Software, Reading, Pa.).

methionine enkephalin = methionine enkephalin (Homo sapiens, UniProt P01210); test: Oxidation reaction of methionine enkephalin (Example 3); type: biochemical; details: light irradiation 1.5 hours, neutral buffer, 37° C.
Text: (§1) Then, the reaction was monitored with a mass spectrometer (MALDI-TOF MS) or LC/MS (ESI-Q).

amylin = molecular target: T1, amylin (Homo sapiens, UniProt P10997); test: Oxidation reaction of amylin; type: biochemical; details: pre-incubation 0 h
T1 construct: amylin, a hormone essential for glycemic control
T1 sequence (P10997 34-70 limits assumed): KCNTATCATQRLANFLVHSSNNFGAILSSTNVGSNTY
Method: as §1
The amino acid analysis of oxidized Aβ1-42 and oxidized amylin (carried out by Peptide Institute, Inc.) was conducted. The oxidized Aβ1-42 and the oxidized amylin were enzymatically digested with endopeptidase Lys-C and chymotrypsin, respectively, and the obtained digests were analyzed with a mass spectrometer (MALD-TOF MS) and LC/MS/MS (ESI-Q-TOF).

angiotensin IV = angiotensin IV (Homo sapiens, UniProt P01019); test: Oxidation reaction of angiotensin IV (Example 3); type: biochemical; details: light irradiation 1.5 hours, neutral buffer, 37° C.
Text: as §1

Chain of Aβ1-42 (P05067 672-713 limits assumed): as the sequence (P05067 672-713 limits assumed) above

SMILES: CC(C)C[C@@H](NC(=O)[C@@H](CCCCN)NC(=O)CCCCCN1CCCc2cc(-c3sc4cc(Br)ccc4[n+]3C)ccc21)C(=O)N[C@@H](C(=O)N[C@H](Cc1ccc(-c2ccccc2)cc1)C(=O)N[C@H](Cc1ccccc1)C(=O)O)C(C)C [1e] (X1-[dK][dL][dV][dBip][dF]-OH)
- oxygenation of Aβ in a cell medium (Aβ1-42): approximately 40%
- phototoxicity (cell viability) (PC12 cells): no phototoxicity

SMILES: C[n+]1c(-c2cc3c4c(c2)CCCN4CCC3)sc2cc(Br)ccc21 [compound (1a)]
- Kd [1]: 1.1 µM

SMILES: Cc1cc2nc3c(=O)[nH]c(=O)nc-3n(C[C@H](O)[C@H](O)[C@H](O)CO)c2cc1C [riboflavin, reference compound]
- oxygenation of methionine enkephalin (methionine enkephalin): ~60%
- oxygenation of amylin in a monomeric state (amylin): high oxidative activity against monomeric amylin
- oxygenation of angiotensin IV (angiotensin IV): approximately 40%

— patent US9932333B2, “Benzothiazole compound and medicine containing same” (JAPAN SCIENCE AND TECHNOLOGY AGENCY, priority 2014, dated 2018)
